Consider one compound from patent publication US8466130B2, “Mitochondria targeted cationic anti-oxidant compounds for prevention, therapy or treatment of hyper-proliferative disease, neoplasias and cancers” (Colby Pharmaceutical Company, priority 2009, dated 2013).

In one assay the test system is LNCaP cells. The assay can be described thus: Hoechst dye-DNA fluorescence growth assay, LNCaP cells. Type of assay: cell-based, human. As to conditions: varying concentrations (FIG. 8). As to the method: (§1) For DNA assay, each culture plate was thawed and equilibrated to room temperature under protection from light. Hoechst dye was then added to each well in 200 μL of high salt TNE buffer (10 mM Tris, 1 mM EDTA, 2 M NaCl [pH 7.4]) at a final concentration of 6.7 μg/mL. After further incubation at room temperature for 2 hours under protection from light, culture plates were scanned on the CytoFluor 2350™ scanner using the 360/460 nm filter excitation and emission set. The DNA fluorescence intensity was used as a measure of cell growth.
(§2) The effects of varying concentrations of Mito-T drug on the growth of LNCaP and PC-3 cells over a period of 4 days was assayed using the Hoechst dye-DNA fluorescence assay described above. In these and all subsequent cell culture studies described below, each data point and its associated error bar are respectively, an average value and the standard deviation of data obtained from six wells of a 96-well plate run in duplicate in three separate sets of experiments.

In another assay the test system is PC-3 cells. The assay can be described thus: Hoechst dye-DNA fluorescence growth assay, PC-3 cells. It is filed as cell-based, human. As to conditions: varying concentrations (FIG. 8). As to the method: as §1, §2

Regarding `CC1(C)CC(OCCCCCCCCCC[P+](c2ccccc2)(c2ccccc2)c2ccccc2)CC(C)(C)N1[O]` [MitoT-10, [4-(10-triphenylphosphonium)decyloxy-2,2,6,6-tetramethylpiperidinyloxy, freeradical]bromide], the growth and proliferation result in the assay with LNCaP cells and in the assay on PC-3 cells was “inhibitory effect” throughout.
